# Reference: ChEMBL document CHEMBL5321241, “Identification of new hit to lead magmas inhibitors as potential therapeutics for glioblastoma” (Bioorg Med Chem Lett, 2023)
# What was measured:
# [1] = Anticancer activity against human D-54MG cells assessed as cell growth inhibition inhibition incubated for 3 days; type: functional, cell-based; settings: D54MG, 72 h
# U-251 = assay: Anticancer activity against human U-251 cells assessed as cell growth inhibition inhibition incubated for 3 days; type: functional, cell-based; settings: U-251, 72 h
# LN-229 = assay: Anticancer activity against human LN-229 cells assessed as cell growth inhibition inhibition incubated for 3 days; type: functional, cell-based; settings: LN-229, 72 h
# [2] = Anticancer activity against patient-derived DB70 cells assessed as cell growth inhibition inhibition incubated for 3 days; type: functional, cell-based; settings: Homo sapiens, DB70, 72 h
# [3] = Anticancer activity against patient-derived DB93 cells assessed as cell growth inhibition incubated for 3 days; type: functional, cell-based; settings: Homo sapiens, DB93, 72 h
# [4] = Lipophilicity, logP of compound; type: physicochemical; settings: octanol/water
Compound,IC50 (U-251) [µM],logP ([4]; read-out: logP),logP [4],IC50 [1] [µM],IC50 (LN-229) [µM],IC50 [2] [µM],IC50 [3] [µM]
CCC1=C(C)/C(=C/c2ccc(C#N)cc2)CCC1(C)C,83.8,5.25,–,72.2,–,–,–
CCC1=C(C)/C(=C/c2ccc(-c3noc(-c4ccncc4)n3)cc2)CCC1(C)C,> 100,6.22,–,–,> 100,–,–
CCC1=C(C)/C(=C/c2ccc(C(=O)Nc3ccc(Cl)cc3Cl)cc2)CCC1(C)C,–,7.14,–,–,–,–,–
CCC1=C(C)/C(=C/c2ccc(C(=O)Nc3ccc(O)cc3)cc2)CCC1(C)C,> 100,5.63,–,> 100,–,–,–
CCC1=C(C)/C(=C/c2ccc(C(=O)Nc3ccc4[nH]c(C(F)(F)F)nc4c3)cc2)CCC1(C)C,> 100,6.37,–,–,> 100,–,–
CCC1=C(C)/C(=C/c2ccc(C(=O)Nc3nccs3)cc2)CCC1(C)C,> 100,5.74,–,–,> 100,–,–
CCC1=C(C)/C(=C/c2ccc(C(=O)Nc3nc4ccc(Br)cc4s3)cc2)CCC1(C)C,75,8.05,–,100,–,–,–
Cn1nnc2c(C(N)=O)ncn2c1=O [TEMOZOLOMIDE],> 500,–,-1.15,> 500,> 1000,25.4,> 500

# Continued, in another order:
IC50 (U-251) [µM],logP ([4]; read-out: logP),logP [4],Compound,IC50 [1] [µM],IC50 (LN-229) [µM],IC50 [2] [µM],IC50 [3] [µM]
5.06,3.98,–,CCC1=C(C)/C(=C/c2ccc(C(=O)NC(=N)N)cc2)CCC1(C)C,5.6,6.54,1.77,2.09
10,8.12,–,CCC1=C(C)/C(=C/c2ccc(-c3noc(-c4ccc(Cl)cc4)n3)cc2)CCC1(C)C,> 100,–,–,–
4.47,5.78,–,CCC1=C(C)/C(=C/c2ccc(C(=O)Nc3nc4ccccc4[nH]3)cc2)CCC1(C)C,–,> 75,–,–
56.8,4.53,–,CCC1=C(C)/C(=C/c2ccc(/C(N)=N/O)cc2)CCC1(C)C,66.6,–,–,–
26.8,6.5,–,CCC1=C(C)/C(=C/c2ccc(C3=NOB(c4ccccc4)N3)cc2)CCC1(C)C,47.4,60,13.3,8.31
58.4,–,9.09,CCC1=C(C)/C(=C/c2ccc(-c3noc(-c4ccccc4OC(F)(F)F)n3)cc2)CCC1(C)C,65.6,–,–,–
37.8,6.22,–,CCC1=C(C)/C(=C/c2ccc(-c3noc(-c4cccnc4)n3)cc2)CCC1(C)C,–,35.6,–,–
7,8.39,–,CCC1=C(C)/C(=C/c2ccc(-c3noc(-c4ccc(Br)cc4)n3)cc2)CCC1(C)C,> 100,–,–,–
6.04,6.94,–,CCC1=C(C)/C(=C/c2ccc(C(=O)Nc3ccc(C(F)(F)F)cc3)cc2)CCC1(C)C,3.81,5.93,> 50,> 50
19.3,7.22,–,CCC1=C(C)/C(=C/c2ccc(C(=O)Nc3nc4ccccc4s3)cc2)CCC1(C)C,6.64,22.8,6.67,3.54
20.7,7.55,–,CCC1=C(C)/C(=C/c2ccc(C(=O)Nc3ccc(OC(F)(F)F)cc3)cc2)CCC1(C)C,–,47.5,–,–
